Reference: PMC6372667 (Experimental & Molecular Medicine, 2019)
Like-named read-outs stand apart in the source and are kept apart here.

Columns and labels:
[1] = molecular target: T1, BACE1 (human recombinant β-secretase) (Homo sapiens, UniProt P56817); assay: In vitro BACE1 FRET enzyme assay; format: biochemical
From the text: (§1) BACE1 (human recombinant β-secretase) ([…]) and the BACE1 FRET (fluorescence resonance energy transfer) assay kit Red were purchased from ThermoFisher Scientific (P2985; Waltham, MA, USA). […] For the cell culture experiment, Dulbecco’s modified Eagle’s medium (DMEM), Opti-MEM, fetal bovine serum (FBS), and penicillin/streptomycin were obtained from Capricorn Scientific (Ebsdorfergrund, Germany). β-secretase inhibitor III (β-SI) was purchased from Calbiochem (Darmstadt, Germany). The protease inhibitor mixture (a mixture of AEBSF, pepstatin A, E-64, bestain, leupeptin, and aprotinin) was purchased from Sigma-Aldrich (St. Louis, MO, USA). Enzyme-linked immunosorbent assay (ELISA) kits for Aβ40 and Aβ42 were obtained from IBL (Kunma, Japan). All chemicals and solvents used were reagent grade, purchased from commercial sources, and used as received.
The BACE1 FRET assay was carried out according to the manufacturer’s instructions with slight modifications as previously described. The assay was performed in a […] black plate using a multi-pipette.

B16F10 mouse melanoma = assay: MTT cytotoxicity assay, B16F10; format: cell-based; settings: 24 h
Method: (§2) Cytotoxicity was assessed using the MTT assay. Briefly, the cells were seeded into a 96-well plate at a density of 1×10^5 cells per well in 100 µL of corresponding media and incubated at 37 °C in an incubator under 5% CO2 tension for 24 h. The culture media were then replaced with 100 µL of fresh serum-free media in the presence of varied concentrations of pterosin derivatives, and cells were incubated for an additional 24 h. The control was treated with an equal amount of DMSO present in the assay for a 5 mM concentration. Then, 100 µL of MTT solution (0.5 mg/mL in Phosphate Buffered Saline (PBS)) was added to each culture. To measure the proportion of surviving cells, the media were replaced with 100 µL of DMSO 2 h after the administration of MTT solution. The absorbance was measured at 570 nm using a spectrophotometric plate reader (Molecular Devices, Sunnyvale, CA, USA).

Electric eel AChE [2] = molecular target: T2, Electric eel AChE (Electrophorus electricus, UniProt O42275); assay: In vitro cholinesterase enzyme assay (Ellman), AChE; format: biochemical
T2 construct: purchased Sigma-Aldrich Co
T2 sequence (O42275 24-633): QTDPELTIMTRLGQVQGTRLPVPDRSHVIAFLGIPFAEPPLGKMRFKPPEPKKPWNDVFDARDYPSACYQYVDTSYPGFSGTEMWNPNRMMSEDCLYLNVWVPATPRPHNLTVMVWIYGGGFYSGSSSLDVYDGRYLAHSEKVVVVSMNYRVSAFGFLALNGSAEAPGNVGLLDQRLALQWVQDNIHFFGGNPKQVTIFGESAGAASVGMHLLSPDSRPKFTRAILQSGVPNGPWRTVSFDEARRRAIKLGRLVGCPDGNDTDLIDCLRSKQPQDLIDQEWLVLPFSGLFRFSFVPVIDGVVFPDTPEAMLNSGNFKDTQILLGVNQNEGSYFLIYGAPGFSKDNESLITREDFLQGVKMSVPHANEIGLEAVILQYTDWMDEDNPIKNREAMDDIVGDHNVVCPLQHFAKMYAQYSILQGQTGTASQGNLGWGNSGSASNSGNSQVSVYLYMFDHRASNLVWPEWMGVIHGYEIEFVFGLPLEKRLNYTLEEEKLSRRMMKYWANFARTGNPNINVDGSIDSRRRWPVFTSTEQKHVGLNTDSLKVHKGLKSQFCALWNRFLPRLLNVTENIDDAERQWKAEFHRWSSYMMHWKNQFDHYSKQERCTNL
From the text: as §1
(§3) The inhibitory activities of pterosin derivatives against cholinesterases were measured using the method developed by Ellman et al.[32]. The reaction mixture contained 140 μL of sodium phosphate buffer (pH 8.0), 20 μL of test sample solution (final concentration of the compound 100 μM), and 20 μL of AChE or BChE solution, mixed and incubated for 15 min at room temperature. […] The reactions were initiated following the addition of 10 μL of DTNB and 10 μL of acetyl thiocholine iodide for the AChE assay or butyryl thiocholine chloride for the BChE assay in 96-well microplates, which were incubated for 15 min.

in vitro = in vitro ADME; settings: for BBB permeation class: classified by Pe, given in words; for Papp at 4 h, 25 µg/mL: pig, PAMPA, read-out: PAMPA-BBB permeability Pe
Method: PAMPA (parallel artificial membrane permeation assay) was used as a high-throughput assay to predict BBB permeation. Porcine polar brain lipid (PBL) was used as an artificial membrane to predict BBB permeation. Initially, the test compound was dissolved in DMSO at 5 mg/mL. This compound stock solution (10 µL) was diluted 200-fold in a universal buffer at pH 7.4 and mixed with a multi 8-channel pipette to obtain the secondary stock solution (final concentration 25 µg/mL). The secondary stock solution (200 µL) was placed in the donor wells. The filter membrane was coated with PBL in dodecane (4 mL volume of 20 mg/mL PBL in dodecane), and 5 µL of BBB-1 lipid solution was spread on PBL by pipette. The acceptor well was filled with […] of Acceptor Sink Buffer. The acceptor filter plate was cautiously positioned on the donor plate to assemble a “sandwich” (comprising an aqueous acceptor, artificial lipid membrane and aqueous donor with test compound on the top, middle and bottom, respectively). The test compound diffuses from the donor well to the acceptor well through the lipid membrane. After 4 h of incubation at pH 7.4 and 25 °C, the concentration of the compound in the acceptor, donor, reference and blank wells was estimated with a UV plate reader, Epoch Microplate Spectrophotometer (BioTek Instruments, Inc., Winooski, VT, USA). […] Samples were analyzed in quadruplets, and the average of the four runs was reported. To monitor the consistency of the analysis set, quality control standards were run with each sample set.
PAMPA-BBB, an in vitro artificial membrane permeability assay for the BBB, is one of the most reliable physicochemical screening tools in the early stage discovery of CNS-targeted drugs. The PAMPA-BBB system models the transcellular passive diffusion of chemicals across the BBB and measures strictly passive transport mechanisms via an artificial lipid membrane on effective permeability (Pe, cm/s).

[3] = test system: SH-SY5Y human neuroblastoma; assay: MTT cytotoxicity assay, SH-SY5Y; format: cell-based; settings: 24 h
Method: as §2

[4] = test system: NIH3T3 mouse embryo fibroblasts; assay: MTT cytotoxicity assay, NIH3T3; format: cell-based; settings: 24 h
Method: as §2

[5] = test system: SH-SY5Y, C6, NIH3T3 and B16F10 cell lines; assay: MTT cytotoxicity assay, all cell lines tested; format: cell-based
Method: as §2

C6 rat glial cells = assay: MTT cytotoxicity assay, C6; format: cell-based; settings: 24 h
Method: as §2

horse serum BChE [6] = molecular target: T3, horse serum BChE (Equus caballus, UniProt P81908); assay: In vitro cholinesterase enzyme assay (Ellman), BChE; format: biochemical
T3 construct: horse serum BChE (EC 3.1.1.8); purchased Sigma-Aldrich Co; host or cells: horse serum
T3 sequence (P81908 whole entry): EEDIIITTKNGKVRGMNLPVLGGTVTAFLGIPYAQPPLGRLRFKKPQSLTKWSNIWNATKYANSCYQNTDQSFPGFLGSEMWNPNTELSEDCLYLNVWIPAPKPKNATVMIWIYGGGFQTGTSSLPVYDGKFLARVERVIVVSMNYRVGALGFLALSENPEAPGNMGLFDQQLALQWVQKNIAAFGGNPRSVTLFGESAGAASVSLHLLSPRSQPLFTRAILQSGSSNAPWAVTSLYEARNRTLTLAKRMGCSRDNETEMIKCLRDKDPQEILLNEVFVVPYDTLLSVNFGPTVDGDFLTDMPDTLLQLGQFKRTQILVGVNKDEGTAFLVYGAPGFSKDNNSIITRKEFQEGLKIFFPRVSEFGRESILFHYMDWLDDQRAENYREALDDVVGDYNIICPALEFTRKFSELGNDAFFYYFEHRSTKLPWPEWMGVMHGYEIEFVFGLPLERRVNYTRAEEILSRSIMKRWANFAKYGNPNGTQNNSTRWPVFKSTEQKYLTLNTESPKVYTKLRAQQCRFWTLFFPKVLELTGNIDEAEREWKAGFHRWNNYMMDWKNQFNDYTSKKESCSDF
From the text: as §1, §3

horse serum BChE [7] = molecular target: T3, horse serum BChE; assay: Kinetic analysis of BChE inhibition (Dixon and Lineweaver−Burk plots); format: biochemical; settings: for Inhibition type BChE: Dixon and Lineweaver−Burk plots
Method: (§4) The Ki was determined by interpretation of the Dixon plot, with the value of the x-axis intercept taken as −Ki.
Dixon plots for BChE inhibition by pterosin derivatives. (2S,3R)-Pterosin C (A), (2R,3R)-pterosin C (B), and (2R)-pterosin B (C) were tested in the presence of substrate concentrations of 0.2 mM (●), 0.4 mM (○), and 0.8 mM (▼).
Dixon plots for BChE inhibition by pteroside derivatives. (2R)-pteroside B (A), (2R,3R)-pteroside C (B), and (3S)-pteroside D (C) were tested in the presence of substrate concentrations of 0.2 mM (●), 0.4 mM (○), and 0.8 mM (▼). Lineweaver-Burk plots for BChE inhibition were generated with inhibitor concentrations of 0 µM (Δ), 4 µM (▼), 20 µM (○), and 100 µM (●) for (2R)-pteroside B (D); 0 µM (Δ), 0.8 µM (▼), 4 µM (○), and 20 µM (●) for (2R,3R)-pteroside C (E) and (3S)-pteroside D (F).

[8] = molecular target: T1, BACE1 (human recombinant β-secretase); assay: Kinetic analysis of BACE1 inhibition (Dixon and Lineweaver−Burk plots); format: biochemical; settings: for Inhibition type BACE1: Dixon and Lineweaver−Burk plots
Method: as §4
Dixon plots for BACE1 inhibition by pterosin derivatives.
Dixon plots for BACE1 inhibition by pteroside derivatives.

Electric eel AChE [9] = molecular target: T2, Electric eel AChE; assay: Kinetic analysis of AChE inhibition (Dixon and Lineweaver−Burk plots); format: biochemical; settings: for Inhibition type AChE: Dixon and Lineweaver−Burk plots
Method: as §4
Dixon plots for AChE inhibition by pterosin derivatives. (2S,3R)-Pterosin C (A), (2R,3R)-pterosin C (B), and (2R)-pterosin B (C) were tested in the presence of substrate concentrations of 0.1 mM (●), 0.3 mM (○), and 0.6 mM (▼). Lineweaver-Burk plots for AChE inhibition were generated with inhibitor concentrations of 0 µM (Δ), 4 µM (▼), 20 µM (○), and 100 µM (●) for (2S,3R)-pterosin C (D) and (2R,3R)-pterosin C (E); and 0 µM (Δ), 2 µM (▼), 10 µM (○), and 50 µM (●) for (2R)-pterosin B (F).
Dixon plots for AChE inhibition by pteroside derivatives. (2R)-pteroside B (A), (2R,3R)-pteroside C (B), and (3S)-pteroside D (C) were tested in the presence of substrate concentrations of 0.1 mM (●), 0.3 mM (○), and 0.6 mM (▼). Lineweaver-Burk plots for AChE inhibition were generated with inhibitor concentrations of 0 µM (Δ), 0.8 µM (▼), 4 µM (○), and 20 µM (●) for (2R)-pteroside B (D), (2R,3R)-pteroside C (E), and (3S)-pteroside D (F).

[10] = mean ± S.D. of three experiments
[11] = 4 h, pH 7.4, 25 °C, mean ± SD of quadruple experiments
[12] = determined by Dixon plot, read-out: Ki BChE
[13] = mean ± S.D. of three experiments, read-out: IC50 AChE
[14] = determined by Dixon plot, read-out: Ki BACE1
[15] = mean ± S.D. of three experiments, read-out: IC50 BChE
[16] = determined by Dixon plot, read-out: Ki AChE

T1 sequence (P56817 46-501): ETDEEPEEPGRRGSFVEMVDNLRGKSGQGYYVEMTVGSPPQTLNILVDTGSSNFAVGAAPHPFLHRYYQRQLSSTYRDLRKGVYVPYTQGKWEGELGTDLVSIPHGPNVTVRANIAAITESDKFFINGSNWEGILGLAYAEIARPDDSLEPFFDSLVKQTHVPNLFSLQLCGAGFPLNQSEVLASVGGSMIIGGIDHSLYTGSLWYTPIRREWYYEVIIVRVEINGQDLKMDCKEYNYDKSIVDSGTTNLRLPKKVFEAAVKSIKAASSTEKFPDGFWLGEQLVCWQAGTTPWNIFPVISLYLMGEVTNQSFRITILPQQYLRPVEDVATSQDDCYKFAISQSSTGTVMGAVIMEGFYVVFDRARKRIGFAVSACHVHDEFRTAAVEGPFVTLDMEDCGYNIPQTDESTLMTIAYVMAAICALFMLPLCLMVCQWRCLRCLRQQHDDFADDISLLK

| Compound | IC50 [1, 10] | LD50 Based on MTT Assay, B16F10 (B16F10 mouse melanoma) | IC50 (Electric eel AChE [2]) | BBB permeation class (in vitro; PAMPA-BBB) | Papp at 4 h, 25 µg/mL (in vitro; [11]) | LD50 Based on MTT Assay, SY-SY5Y [3] | LD50 Based on MTT Assay, NIH3T3 [4] | LD50, cell lines tested [5] | LD50 Based on MTT Assay, C6 (C6 rat glial cells) | IC50 (horse serum BChE [6]) | Inhibition type BChE (horse serum BChE [7]) | Ki (horse serum BChE [7]; [12]) | IC50 (Electric eel AChE [2]; [13]) | Inhibition type BACE1 [8] | Ki [8, 14] | IC50 (horse serum BChE [6]; [15]) | Inhibition type AChE (Electric eel AChE [9]) | Ki (Electric eel AChE [9]; [16]) | also measured |
| --- | --- | --- | --- | --- | --- | --- | --- | --- | --- | --- | --- | --- | --- | --- | --- | --- | --- | --- | --- |
| Cc1c(CCO)c(CO)cc2c1C(=O)[C@@H](C)C2 [(2S)-Pterosin P, (2S)-pterosin P] | 67.1 ± 7.7 µM | >5,000 µM | 17.8 ± 0.62 µM | high BBB permeation | 7.92 ± 0.36 ×10⁻⁶ cm/s | >5,000 µM | >5,000 µM | above 5 mM | >5,000 µM | 55.9 ± 5.6 µM |  |  |  |  |  |  |  |  | log Pe (in vitro; PAMPA-BBB): -5.10 |
| Cc1cc2c(c(C)c1CCOC1OC(CO)C(O)C(O)C1O)C(=O)C(C)(C)C2O [(3S)-Pteroside D, (3S)-pteroside D] | 10.7 ± 1.5 µM | >5,000 µM |  | very low BBB permeability |  | 1,320 ± 86 µM | >5,000 µM |  | >5,000 µM |  | Mixed-type | 19.7 µM | 27.4 ± 1.2 µM | Mixed-type | 16.5 µM | 19.3 ± 0.17 µM | Mixed-type | 23.1 µM |  |
| Cc1cc2c(c(C)c1CCO)C(=O)C(C)(C)C2O (stereo in doubt) [(3R)-Pterosin D, (3R)-pterosin D] | 92.5 ± 7 µM | >5,000 µM |  |  |  | >5,000 µM | >5,000 µM | above 5 mM | >5,000 µM |  |  |  | 68.7 ± 3.7 µM |  |  | > 125 µM |  |  | IC50 BChE (horse serum BChE [6]; [10]): inactive at the concentrations tested |
| Cc1cc2c(c(C)c1CCOC1OC(CO)C(O)C(O)C1O)C(=O)C(C)(CO)C2 [(2S)-Pteroside A, (2S)-pteroside A] | 84.6 ± 6 µM | >5,000 µM |  |  |  | >5,000 µM | >5,000 µM | above 5 mM | >5,000 µM |  |  |  |  |  |  |  |  |  |  |
| Cc1cc2c(c(C)c1CCOC1OC(CO)C(O)C(O)C1O)C(=O)C(C)C2 [(2R)-Pteroside B, (2R)-pteroside B] | 18 ± 2.8 µM | >5,000 µM |  | very low BBB permeability | 0.48 ± 0.29 ×10⁻⁶ cm/s | >5,000 µM | >5,000 µM | above 5 mM | >5,000 µM |  | Mixed-type | 22.6 µM | 2.55 ± 0.23 µM | Noncompetitive | 23.1 µM | 62 ± 0.71 µM | Mixed-type | 4.89 µM |  |
| Cc1cc2c(c(C)c1CCO)C(=O)[C@@H](C)[C@H]2O [(2S,3R)-Pterosin C, (2S,3R)-pterosin C] |  | >5,000 µM | 12.8 ± 0.79 µM |  |  | 2,940 ± 260 µM | >5,000 µM |  | >5,000 µM | 44.3 ± 1 µM | Noncompetitive |  |  | Noncompetitive |  |  | Mixed-type |  | IC50 [1]: 23.1 ± 2.9 µM; Ki (horse serum BChE [7]): 29.9 µM; log Pe (in vitro): -5.65; Papp at 4 h, 25 µg/mL (in vitro; pH 7.4): 2.34 ± 0.81 ×10⁻⁶ cm/s; Ki [8]: 33.8 µM; Ki (Electric eel AChE [9]): 16.3 µM |
